Laboratory results taken from patent publication US12011432B2, “Method of modulating ribonucleotide reductase” (CASE WESTERN RESERVE UNIVERSITY, priority 2018, dated 2024).

Columns and labels:
[1] = test system: Human pancreatic cancer cells (Pancl); experiment: Cancer cell line growth inhibition assay (DNA content); assay type: cell-based; set-up: inhibition of growth of Pancl cells: dose or concentration left out as unconfirmed; conditions: for IC50: Homo sapiens, Pancreatic cancer cell, 72 h, continuous exposure for three days; for IC50 / activity/potency against growth of Pancl cells (in words): DNA content per well; for inhibition of growth of Pancl cells / activity/potency against growth of Pancl cells (in words): three days
Experimental: Growth inhibition assays were performed in the Translational Research Shared Resource of the Case Comprehensive Cancer Centre. Human pancreatic cancer cells (Pancl) were maintained in standard growth medium consisting of (RPMI1640+10% FBS+2 mM glutamine+100 U/mL penicillin, and […] streptomycin). Cells were monitored and shown to be negative for mycoplasma contamination using the Mycoplasma Detection kit (MycoAlert™, Lonza, Basel, Switzerland). For growth inhibition assays, cells were harvested by trypsinisation and seeded into 96-well tissue culture plates at 2500 cells/mL. The following day, triplicate wells were treated with an appropriate volume of 5x-inhibitor-containing medium. The cells were cultured for 3 additional days at 37° C. in a 5% CO2 humidified incubator. Cell growth was assessed by measuring total DNA content per well using an adaptation of the method of Labarca and Paigen.

blood progenitor cells = conditions: previously shown, cited from earlier work

Compound	IC50 [1] [nM]	melting point	decrease in IC50 over the lead compound NSAH (TP8) ([1]; Pancl cells) [fold]	inhibition of growth of Pancl cells [1]	activity/potency against growth of Pancl cells (in words) [1]	effectiveness against blood progenitor cells versus cancer cell lines (blood progenitor cells)	therapeutic index compared with gemcitabine (blood progenitor cells; same cell-cell comparison)
O=C1Nc2ccccc2/C1=N\NC(=O)c1ccccc1O [TP1, (E)-2-Hydroxy-N′-(2-Oxoindolin-3-Ylidene)Benzohydrazide]	> 10000	–	–	did not inhibit the growth	–	–	–
O=C(N/N=C/c1cc(-c2ccccc2)ccc1O)c1ccccc1O [TP2]	2000 to 3000	273.5 to 274.9 °C	–	–	–	–	–
O=C(N/N=C/c1cc(-c2ccsc2)ccc1O)c1ccccc1O [TP3, (E)-2-Hydroxy-N′-(2-Hydroxy-5-(Thiophen-3-Yl)-Benzylidene)-Benzohydrazide]	2000 to 3000	282.9 to 284.6 °C	–	–	–	–	–
COc1ccc(-c2ccoc2)c(/C=N/NC(=O)c2ccccc2O)c1O [TP4, (E)-N′-(6-(Furan-3-Yl)-2-Hydroxy-3-Methoxybenzylidene)-2-Hydroxybenzohydrazide]	< 1500	228.3 °C (dec.)	–	–	–	–	–
COc1ccc(-c2ccccc2)c(/C=N/NC(=O)c2ccccc2O)c1O [TP5, (E)-2-Hydroxy-N′-((3-Hydroxy-4-Methoxy-11,1′-Biphenyll-2-Yl)Methylene)-Benzohydrazide]	< 1500	257.9 to 259.4 °C	–	–	–	–	–
COc1ccc(-c2ccsc2)c(/C=N/NC(=O)c2ccccc2O)c1O [TP6, (E)-2-Hydroxy-N′-(2-Hydroxy-3-Methoxy-6-(Thiophen-3-Yl)Benzylidene)-Benzohydrazide]	< 1500	229.5 °C	> 2	–	greatest potency	–	–
Nc1ncnc2c1ncn2-c1ccc(/C=N/NC(=O)c2ccccc2O)cc1 [TP7, (E)-N′-(4-(6-Amino-9H-Purin-9-Yl)Benzylidene)-2-Hydroxybenzohydrazide]	> 10000	229.5 °C	–	did not inhibit the growth	–	–	–
O=C(N/N=C/c1c(O)ccc2ccccc12)c1ccccc1O [TP8, (E)-2-Hydroxy-N′-((2-Hydroxynaphthalen-1-Yl)Methylene)-Benzohydrazide]	< 1500	223.8 °C	–	–	–	much less effective	higher therapeutic index than gemcitabine

Further lines, with some results ahead:

IC50 [1] [nM]	melting point	decrease in IC50 over the lead compound NSAH (TP8) ([1]; Pancl cells) [fold]	Compound	inhibition of growth of Pancl cells [1]	activity/potency against growth of Pancl cells (in words) [1]	effectiveness against blood progenitor cells versus cancer cell lines (blood progenitor cells)	therapeutic index compared with gemcitabine (blood progenitor cells; same cell-cell comparison)
> 10000	95.2 to 96.8 °C	–	COc1ccc(-c2cnc(-c3ccccc3O)s2)cc1 [TP9, 2-(5-(4-Methoxyphenyl)Thiazol-2-Yl)-Phenol]	did not inhibit the growth	ineffective	–	–
2000 to 3000	258.6 °C	–	O=C(N/N=C/c1c(O)ccc2ccccc12)c1ccc(-n2ccccc2=O)cc1 [TP10, (E)-N′-((2-Hydroxynaphthalen-1-Yl)Methylene)-4-(2-Oxopyridin-1(2H)-Yl)-Benzohydrazide]	–	–	–	–
> 10000	227.1 to 228.6 °C	–	O=C(NNC(=O)c1c(O)ccc2ccccc12)c1cccnc1 [TP11, N′-(2-Hydroxy-1-Naphthoyl)-Nicotinohydrazide]	did not inhibit the growth	–	–	–
> 10000	202.8 to 204.5 °C	–	O=C(N/N=C/c1cccnc1)c1c(O)ccc2ccccc12 [TP12, (E)-2-Hydroxy-N′-(Pyridin-3-Ylmethylene)-1-Naphthohydrazide]	did not inhibit the growth	–	–	–
> 10000	216.6 to 217.7 °C	–	O=C(NNC(=O)c1ccccc1O)c1cccnc1 [TP13, N′-(2-Hydroxybenzoyl)-Nicotinohydrazide]	did not inhibit the growth	–	–	–
